“And” between values parts separate entries of the source, which are not always exact repeats. Equal values may be shown once.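 Tested at 5 concentrations; 48 h exposure; 96-well plates; endpoints linearly interpolated, else capped at highest concentration. GI50 marks 50% less growth. Definition used: TGI = concentration required for complete inhibition of growth.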
Experiments:
Assay in all cases: NCI-60 cell line screen, 48 h
RPMI-8226 leukemia = test system: RPMI-8226 leukemia
MDA-MB-231 breast = test system: MDA-MB-231 breast
COLO 205 colon = test system: COLO 205 colon
DU-145 prostate = test system: DU-145 prostate
MDA-MB-435 = test system: MDA-MB-435
EKVX NSCLC = test system: EKVX NSCLC
MCF7 breast = test system: MCF7 breast
HCT-116 colon = test system: HCT-116 colon
MOLT-4 leukemia = test system: MOLT-4 leukemia
SR leukemia = test system: SR leukemia

SMILES | TGI (RPMI-8226 leukemia) | TGI (MDA-MB-231 breast) | TGI (COLO 205 colon) | TGI (DU-145 prostate) | TGI (MDA-MB-435) | TGI (EKVX NSCLC) | TGI (MCF7 breast) | TGI (HCT-116 colon) | TGI (MOLT-4 leukemia) | TGI (SR leukemia) | GI50 (RPMI-8226 leukemia) | GI50 (MDA-MB-231 breast) | GI50 (COLO 205 colon) | GI50 (DU-145 prostate) | GI50 (MDA-MB-435) | GI50 (EKVX NSCLC) | GI50 (MCF7 breast) | GI50 (HCT-116 colon) | GI50 (MOLT-4 leukemia) | GI50 (SR leukemia)
O=C1c2sccc2-c2cccc3cccc1c23 (tested in a mixture with another compound) | 0.668 µM | 54.3 µM | 15.6 µM | 7.03 µM | > 100 µM | 0.105 µM | > 100 µM | > 100 µM | 5.2 µM | 2.02 µM |  |  |  |  |  |  |  |  |  | 
c1ccc2c(c1)Nc1ccncc1S2 | 78.1 µM | > 100 µM | 37.1 µM | > 100 µM | > 100 µM | 81.5 µM | > 100 µM | > 100 µM | > 100 µM | 50.3 µM | 17 µM | 26.9 µM | 11.5 µM | 32.3 µM | 23.2 µM | 12.1 µM | 28.7 µM | 20.5 µM | 31.1 µM | 13.4 µM
Cc1cc(N(CCCNc2ccnc3cc(Cl)ccc23)Cc2ccco2)nc(N2CCN(C)CC2)n1 | 5.15 µM | 8.72 µM | 3.94 µM | 18.8 µM | 3.23 µM | 22 µM | 13.9 µM | 10.7 µM | 14 µM | 5.62 µM | 2.09 µM | 2.63 µM | 1.89 µM | 5.69 µM | 1.69 µM | 4.99 µM | 3.01 µM | 2.48 µM | 2.74 µM | 2.08 µM
O=C(O)CCC(=O)c1ccc2sc3ccccc3c2c1 | > 100 µM | > 100 µM | > 100 µM | > 100 µM | > 100 µM | > 100 µM | > 100 µM | > 100 µM | > 100 µM | > 100 µM |  |  |  |  |  |  |  |  |  | 
O=C1OC(C(O)CO)C(O)=C1O (stereo not drawn) | 4500 µM and 6610 µM | 2820 µM and 2960 µM | 3750 µM and 3420 µM | 3040 µM and 3110 µM | 372 µM and 374 µM | 4390 µM | 502 µM and 1100 µM | 534 µM and 2110 µM | 5040 µM and > 4890 µM | 877 µM and 924 µM | 1910 µM and 2400 µM | 1460 µM and 1440 µM | 2030 µM and 1830 µM | 1610 µM and 1690 µM | 203 µM and 208 µM | 2420 µM | 233 µM and 489 µM | 250 µM and 641 µM | 2130 µM and 1550 µM | 349 µM and 292 µM
Oc1cccc2ccc(N/N=C/c3cc(CN4CCOCC4)c(O)c4ncccc34)nc12 | 10.5 µM | 2.25 µM | 1.6 µM | 6.22 µM | 2.86 µM | 11.2 µM | 1.54 µM | 2.77 µM | 5.62 µM | 4.38 µM | 0.0154 µM | 0.0441 µM | 0.117 µM | 0.0645 µM | 0.0165 µM | 0.0962 µM | 0.021 µM | 0.0223 µM | 0.053 µM | 0.0332 µM
Oc1ccc(C(c2ccc(O)cc2)c2ccc(Br)cn2)cc1 | 58.6 µM | 49.2 µM | 3.44 µM | > 69.3 µM | 65.9 µM | 3.85 µM | 0.732 µM | 14.4 µM | 76.4 µM | > 86.3 µM | 15.6 µM | 13.4 µM | 0.308 µM | 2.8 µM | 20 µM | 0.358 µM | 0.264 µM | 0.517 µM | 21.3 µM | 26 µM
COC1C(N)C(OC2C(Oc3cccc4c(O)c5c(=O)oc6ccc(C)c7c(=O)oc(c34)c5c67)OC(C)C(O)C2(C)O)OC(C)C1O (stereo not drawn) | 12.4 µM | 1.74 µM | 0.383 µM | 1.33 µM | 0.219 µM | 1.03 µM | 1.31 µM | 0.118 µM | 1.96 µM | 8.12 µM |  |  |  |  |  |  |  |  |  | 
COc1ncnc(NS(=O)(=O)c2ccc(N=C3C(=O)N(CN4CCN(c5c(F)cc6c(=O)c(C(=O)O)cn(C7CC7)c6c5OC)CC4C)c4ccc(Br)cc43)cc2)c1OC (stereo not drawn) | 22.3 µM | 25.4 µM | 39.9 µM | 37.3 µM | 33.2 µM | 44.8 µM | 41.9 µM | > 50 µM | > 50 µM | > 50 µM | 5.54 µM | 9.42 µM | 10.8 µM | 10.9 µM | 7.07 µM | 6.4 µM | 7.1 µM | 9.96 µM | 18.3 µM | 42.7 µM
Cc1cc(N=Nc2ccccc2C)ccc1N | 34.5 µM | 30.7 µM and 28.4 µM | 33.6 µM and 32.4 µM | 27.2 µM | 49.3 µM and 46 µM | 45.4 µM and 68 µM | 36.2 µM and 43.6 µM | 29.5 µM and 27.3 µM | > 100 µM | 52.1 µM and 61.6 µM | 1.69 µM | 12.7 µM |  | 9.35 µM | 12.7 µM | 11.7 µM | 16.5 µM | 13.2 µM | 0.967 µM | 8.49 µM
O=C(/C=C/c1cccc(O)c1)c1cccc(-n2cc(-c3ccccc3)[nH]c2=O)c1 | 6.33 µM | 12.6 µM | 3.85 µM | 10.3 µM | 9.64 µM | 23 µM | 6.68 µM |  | > 27.3 µM | > 20.1 µM | 2.16 µM | 3.59 µM | 1.96 µM | 3.15 µM | 2.53 µM | 7.18 µM | 2.29 µM | 2.22 µM | 3.38 µM | 1.51 µM

Source: PubChem BioAssay (NCI)
